Measurements as given in ChEMBL document CHEMBL3085630, “Thienopyrimidine bisphosphonate (ThPBP) inhibitors of the human farnesyl pyrophosphate synthase: optimization and characterization of the mode of inhibition” (J Med Chem, 2013).
Calls of active or inactive are those of the source. The calls are words filed in the database; no cut-off is given here.

Key:
[1] = system: Hydroxyapatite; assay: Binding affinity to bone mineral hydroxyapatite at 50 uM after 5 mins by NMR-spectroscopic analysis
[2] = biological target: T1, Farnesyl pyrophosphate synthase (Homo sapiens, UniProt P14324); assay: Inhibition of human recombinant FPPS using GPP/[3H]IPP as substrate incubated for 10 mins prior to substrate addition measured after 8 mins by scintillation counting analysis
T1 sequence (P14324 whole entry): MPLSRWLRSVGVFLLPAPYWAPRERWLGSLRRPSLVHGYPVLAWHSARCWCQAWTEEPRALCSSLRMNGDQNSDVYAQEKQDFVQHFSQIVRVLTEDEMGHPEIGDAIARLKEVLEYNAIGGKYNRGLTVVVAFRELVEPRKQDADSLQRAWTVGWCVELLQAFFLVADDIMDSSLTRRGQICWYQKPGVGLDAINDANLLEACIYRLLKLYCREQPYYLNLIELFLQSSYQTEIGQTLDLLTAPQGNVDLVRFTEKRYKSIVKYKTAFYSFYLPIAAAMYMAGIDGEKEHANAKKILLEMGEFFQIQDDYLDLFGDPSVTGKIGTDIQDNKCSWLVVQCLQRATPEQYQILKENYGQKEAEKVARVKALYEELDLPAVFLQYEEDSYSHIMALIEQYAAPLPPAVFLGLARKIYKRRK

[3] = biological target: T1, Farnesyl pyrophosphate synthase; assay: Inhibition of human recombinant FPPS using GPP/[3H]IPP as substrate incubated for 10 mins prior to substrate addition by scintillation counting analysis
[4] = biological target: T2, Farnesyl pyrophosphate synthase (Homo sapiens) (UniProt P14324); assay: Inhibition of human recombinant FPPS using GPP/[3H]IPP as substrate at 100 nM incubated for 10 mins prior to substrate addition measured after 8 mins by scintillation counting analysis
T2 sequence (whole entry): T1 sequence (P14324 whole entry)

| Structure (SMILES) | Activity [1] | inhibition [4] | further results |
| --- | --- | --- | --- |
| O=P(O)(O)C(Nc1ncnc2sc(-c3ccc(OC4CC4)cc3)cc12)P(=O)(O)O | Active | – | – |
| CC(C)Oc1ccc(-c2cc3c(NC(P(=O)(O)O)P(=O)(O)O)ncnc3s2)cc1 | – | – | IC50 [2]: 200 nM |
| O=P(O)(O)C(O)(Cc1cccnc1)P(=O)(O)O | Active | – | – |
| COc1ccc(-c2cc3c(NC(P(=O)(O)O)P(=O)(O)O)ncnc3s2)cc1 | – | – | IC50 [3]: 440 nM |
| Cc1noc(C)c1-c1cc2c(NC(P(=O)(O)O)P(=O)(O)O)ncnc2s1 | – | < 20% | – |
| O=P(O)(O)C(Nc1ncnc2sc(-c3ccc(C4CC4(F)F)cc3)cc12)P(=O)(O)O (centres undefined) | – | – | IC50 [3]: 140 nM |
| O=P(O)(O)C(Nc1ncnc2sc(-c3ccc(C4CC4)cc3)cc12)P(=O)(O)O | Active | – | IC50 [2]: 39 nM; IC50 [3]: 115 nM |
| O=P(O)(O)C(Nc1ncnc2sc(-c3cccc4[nH]ncc34)cc12)P(=O)(O)O | – | < 20% | – |
| O=P(O)(O)C(Nc1ncnc2sc(-c3ccc(C(F)(F)F)cc3)cc12)P(=O)(O)O | Active | 73% | – |
| O=P(O)(O)C(Nc1ncnc2sc(-c3cccc(C(F)(F)F)c3)cc12)P(=O)(O)O | – | 30% | – |
| O=P(O)(O)C(Nc1ncnc2sc(-c3ccc4[nH]ncc4c3)cc12)P(=O)(O)O | – | < 20% | – |
